# Laboratory results as given in patent publication US10597388B2, “Pyridazinone herbicides” (FMC CORPORATION, priority 2014, dated 2020).
# Columns and labels:
# Test in all cases: Test D controlled growth environment herbicide test, pre- and postemergence
# Assay type in all cases: in vivo
# [1] = test system: Russian thistle (Salsola kali)
# Summary of the method: (§1)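 Species sown in silt loam and sprayed preemergence, or grown in peat-based medium to 2–18 cm (1- to 4-leaf stage) and sprayed postemergence, with compounds in non-phytotoxic solvent plus surfactant. Visual injury scored versus controls after 14–21 d in a controlled environment, 0 (no effect) to 100 (complete control).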
# [2] = test system: bluegrass (annual bluegrass, Poa annua)
# Summary of the method: as §1
# [3] = test system: bromegrass, downy (downy bromegrass, Bromus tectorum)
# Summary of the method: as §1
# [4] = test system: buckwheat, wild (wild buckwheat, Polygonum convolvulus)
# Summary of the method: as §1
# [5] = test system: canarygrass (Phalaris minor)
# Summary of the method: as §1
# [6] = test system: chamomile (scentless chamomile, Matricaria inodora)
# Summary of the method: as §1
# [7] = test system: field poppy (Papaver rhoeas)
# Summary of the method: as §1
# [8] = test system: field violet (Viola arvensis)
# Summary of the method: as §1
# [9] = test system: mustard, wild (wild mustard, Sinapis arvensis)
# Summary of the method: as §1
# [10] = test system: oat, wild (wild oat, Avena fatua)
# Summary of the method: as §1
# [11] = test system: oilseed rape (Brassica napus)
# Summary of the method: as §1
# [12] = test system: radish, wild (wild radish, Raphanus raphanistrum)
# Summary of the method: as §1
# [13] = test system: wheat, spring (spring wheat, Triticum aestivum)
# Summary of the method: as §1
# [14] = Postemergence, 31 g ai/ha, scale 0 to 100 (0 no effect, 100 complete control)
# [15] = Postemergence, 125 g ai/ha, visual rating on scale 0 (no effect) to 100 (complete control), 14 to 21 d
# [16] = Postemergence, 250 g ai/ha, scale 0 to 100 (0 no effect, 100 complete control)
# [17] = Preemergence, 62 g ai/ha, scale 0 to 100 (0 no effect, 100 complete control)
# [18] = Preemergence, 125 g ai/ha, scale 0 to 100 (0 no effect, 100 complete control)
# [19] = Preemergence, 250 g ai/ha, scale 0 to 100 (0 no effect, 100 complete control)
# [20] = postemergence, 62 g ai/ha, scale 0 to 100, 0 no effect, 100 complete control
smiles,measurement,setting,value
CC(=O)Oc1c(C)nn(C)c(=O)c1-c1c(C)sc2c(C)cc(C)cc12 [Compound 27],Russian Thistle plant response rating,[1]; [14],65
same,"Plant response rating, Russian Thistle",[1]; [15],70
same,"Plant response rating, Russian Thistle",[1]; [16],70
same,"Plant response rating (scale of 0 to 100), Russian Thistle","[1]; Preemergence, 31 g ai/ha",0
same,"Plant response rating, Russian Thistle",[1]; [17],10
same,"Plant response rating, Russian Thistle",[1]; [18],65
same,"Plant response rating, Russian Thistle",[1]; [19],75
same,"Plant response rating, Russian Thistle",[1]; [20],75
same,Bluegrass plant response rating,[2]; [14],15
same,"Plant response rating, Bluegrass",[2]; [15],30
same,"Plant response rating, Bluegrass",[2]; [16],40
same,"Plant response rating (scale of 0 to 100), Bluegrass","[2]; Preemergence, 31 g ai/ha",25
same,"Plant response rating, Bluegrass",[2]; [17],35
same,"Plant response rating, Bluegrass",[2]; [18],70
same,Bluegrass plant response rating,[2]; [19],80
same,"Plant response rating, Bluegrass",[2]; [20],25
same,"Bromegrass, Downy plant response rating",[3]; [14],15
same,"Plant response rating, Bromegrass, Downy",[3]; [15],55
same,"Plant response rating, Bromegrass, Downy",[3]; [16],70
same,"Plant response rating (scale of 0 to 100), Bromegrass, Downy","[3]; Preemergence, 31 g ai/ha",35
same,"Plant response rating, Bromegrass, Downy",[3]; [17],55
same,"Plant response rating, Bromegrass, Downy",[3]; [18],85
same,"Plant response rating, Bromegrass, Downy",[3]; [19],85
same,"Plant response rating, Bromegrass, Downy",[3]; [20],25
same,"Buckwheat, Wild plant response rating",[4]; [14],100
same,"Plant response rating, Buckwheat, Wild",[4]; [15],100
same,"Plant response rating, Buckwheat, Wild",[4]; [16],100
same,"Plant response rating (scale of 0 to 100), Buckwheat, Wild","[4]; Preemergence, 31 g ai/ha",25
same,"Plant response rating, Buckwheat, Wild",[4]; [17],30
same,"Plant response rating, Buckwheat, Wild",[4]; [18],45
same,"Plant response rating, Buckwheat, Wild",[4]; [19],80
same,"Plant response rating, Buckwheat, Wild",[4]; [20],100
same,Canarygrass plant response rating,[5]; [14],75
same,"Plant response rating, Canarygrass",[5]; [15],85
same,"Plant response rating, Canarygrass",[5]; [16],90
same,"Plant response rating (scale of 0 to 100), Canarygrass","[5]; Preemergence, 31 g ai/ha",85
same,"Plant response rating, Canarygrass",[5]; [17],95
same,"Plant response rating, Canarygrass",[5]; [18],100
same,"Plant response rating, Canarygrass",[5]; [19],100
same,"Plant response rating, Canarygrass",[5]; [20],80
same,Chamomile plant response rating,[6]; [14],80
same,"Plant response rating, Chamomile",[6]; [15],95
same,"Plant response rating, Chamomile",[6]; [16],100
same,"Plant response rating (scale of 0 to 100), Chamomile","[6]; Preemergence, 31 g ai/ha",100
same,"Plant response rating, Chamomile",[6]; [17],100
same,"Plant response rating, Chamomile",[6]; [18],100
same,"Plant response rating, Chamomile",[6]; [19],100
same,"Plant response rating, Chamomile",[6]; [20],90
same,Field Poppy plant response rating,[7]; [14],85
same,"Plant response rating, Field Poppy",[7]; [15],100
same,"Plant response rating, Field Poppy",[7]; [16],100
same,"Plant response rating (scale of 0 to 100), Field Poppy","[7]; Preemergence, 31 g ai/ha",100
same,"Plant response rating, Field Poppy",[7]; [17],100
same,"Plant response rating, Field Poppy",[7]; [18],100
same,"Plant response rating, Field Poppy",[7]; [19],100
same,"Plant response rating, Field Poppy",[7]; [20],100
same,Field Violet plant response rating,[8]; [14],75
same,"Plant response rating, Field Violet",[8]; [15],75
same,"Plant response rating, Field Violet",[8]; [16],85
same,"Plant response rating (scale of 0 to 100), Field Violet","[8]; Preemergence, 31 g ai/ha",80
same,"Plant response rating, Field Violet",[8]; [17],90
same,"Plant response rating, Field Violet",[8]; [18],95
same,"Plant response rating, Field Violet",[8]; [19],95
same,"Plant response rating, Field Violet",[8]; [20],70
same,"Mustard, Wild plant response rating",[9]; [14],15
same,"Plant response rating, Mustard, Wild",[9]; [15],30
same,"Plant response rating, Mustard, Wild",[9]; [16],75
same,"Plant response rating (scale of 0 to 100), Mustard, Wild","[9]; Preemergence, 31 g ai/ha",40
same,"Plant response rating, Mustard, Wild",[9]; [17],40
same,"Plant response rating, Mustard, Wild",[9]; [18],45
same,"Plant response rating, Mustard, Wild",[9]; [19],65
same,"Plant response rating, Mustard, Wild",[9]; [20],40
same,"Oat, Wild plant response rating",[10]; [14],75
same,"Plant response rating, Oat, Wild",[10]; [15],90
same,"Plant response rating, Oat, Wild",[10]; [16],98
same,"Plant response rating (scale of 0 to 100), Oat, Wild","[10]; Preemergence, 31 g ai/ha",85
same,"Plant response rating, Oat, Wild",[10]; [17],85
same,"Plant response rating, Oat, Wild",[10]; [18],90
same,"Plant response rating, Oat, Wild",[10]; [19],95
same,"Plant response rating, Oat, Wild",[10]; [20],85
same,Oilseed Rape plant response rating,[11]; [14],55
same,"Plant response rating, Oilseed Rape",[11]; [15],70
same,"Plant response rating, Oilseed Rape",[11]; [16],85
same,"Plant response rating (scale of 0 to 100), Oilseed Rape","[11]; Preemergence, 31 g ai/ha",0
same,"Plant response rating, Oilseed Rape",[11]; [17],0
same,"Plant response rating, Oilseed Rape",[11]; [18],0
same,"Plant response rating, Oilseed Rape",[11]; [19],35
same,"Plant response rating, Oilseed Rape",[11]; [20],65
same,"Radish, Wild plant response rating",[12]; [14],65
same,"Plant response rating, Radish, Wild",[12]; [15],85
same,"Plant response rating, Radish, Wild",[12]; [16],90
same,"Plant response rating (scale of 0 to 100), Radish, Wild","[12]; Preemergence, 31 g ai/ha",0
same,"Plant response rating, Radish, Wild",[12]; [17],50
same,"Plant response rating, Radish, Wild",[12]; [18],60
same,"Plant response rating, Radish, Wild",[12]; [19],95
same,"Plant response rating, Radish, Wild",[12]; [20],75
same,"Wheat, Spring plant response rating",[13]; [14],0
same,"Plant response rating, Wheat, Spring",[13]; [15],10
same,"Plant response rating, Wheat, Spring",[13]; [16],20
same,"Plant response rating (scale of 0 to 100), Wheat, Spring","[13]; Preemergence, 31 g ai/ha",0
same,"Plant response rating, Wheat, Spring",[13]; [17],0
same,"Plant response rating, Wheat, Spring",[13]; [18],5
same,"Plant response rating, Wheat, Spring",[13]; [19],25
same,"Plant response rating, Wheat, Spring",[13]; [20],5
